Test results reported in patent US20050282840A1, “Methods of modulating neurotrophin-mediated activity” (PainCeptor Pharma Corporation, priority 2004, published 2005).
Where two headings read alike, the source gives them in different places.

Legend:
[1] = test system: p75^NTR receptors (PC12 cells); experiment: Basic screening assay: binding of 125I-NGF to PC12 cells; conditions: test compound 50 μM, 0.5 nM 125I-NGF, PC12 cells, 2 h at 4° C., specific binding as percent of control
Summary of the method: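 PC12 cells (4×10^6) incubated 2 h at 4° C with 0.5 nM 125I-NGF and test compound at 50 μM, rotating. Bound tracer pelleted through 10% glycerol and gamma-counted; specific binding expressed as percent of control after NSB subtraction.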

[2] = target: T1, p75^NTR receptors (PC12 cells) (Rattus norvegicus, UniProt P07174); experiment: Basic screening assay: binding of 125I-BDNF to PC12 cells; conditions: read-out: BDNF Activity % Maximal Binding
T1 construct: endogenous in cells; host or cells: PC12 cells
T1 sequence (P07174 30-425): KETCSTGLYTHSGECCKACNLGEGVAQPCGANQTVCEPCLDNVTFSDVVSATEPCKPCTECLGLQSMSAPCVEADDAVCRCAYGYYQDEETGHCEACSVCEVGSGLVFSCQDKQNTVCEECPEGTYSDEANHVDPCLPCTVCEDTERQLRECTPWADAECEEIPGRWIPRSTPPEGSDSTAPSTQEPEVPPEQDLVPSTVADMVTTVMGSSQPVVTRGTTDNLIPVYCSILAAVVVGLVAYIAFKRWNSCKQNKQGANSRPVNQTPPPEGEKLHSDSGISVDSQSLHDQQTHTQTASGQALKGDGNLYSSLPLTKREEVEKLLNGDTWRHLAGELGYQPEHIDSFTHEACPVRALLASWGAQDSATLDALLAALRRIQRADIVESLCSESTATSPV
T1 sequence (P23560 129-247 partner): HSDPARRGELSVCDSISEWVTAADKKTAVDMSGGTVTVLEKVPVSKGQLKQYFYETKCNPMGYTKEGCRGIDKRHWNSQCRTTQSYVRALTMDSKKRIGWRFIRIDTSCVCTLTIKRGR
Summary of the method: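 4×10^6 PC12 cells incubated 2 h at 4° C, rotating, with 0.5 nM ^125I-BDNF (final) and compound at 50 μM, in duplicate or more. Bound ligand separated through 10% glycerol by centrifugation and counted by gamma counter; specific binding is Bmax minus NSB; inhibitors followed up for EC50.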

[3] = Table 1, test compound 50 μM, 0.5 nM 125I-BDNF, PC12 cells, 2 h at 4° C., specific binding as percent of control
[4] = Table 4, test compound 50 μM, 0.5 nM 125I-BDNF, PC12 cells, 2 h at 4° C., specific binding as percent of control

Row | SMILES | NGF Activity % Maximal Binding ([1]; Table 1) | activity at 50 µM [2, 3] [%] | NGF Activity % Maximal Binding ([1]; Table 4) | activity at 50 µM [2] [%] | also measured
1 | COC(=O)C(C)N1C(=O)S/C(=C/c2ccc(-c3ccc(C)c([N+](=O)[O-])c3)o2)C1=O (centres unmarked) [Compound 64, 2-{5-[5-(4-Methyl-3-nitrophenyl)furan-2-ylmethylene]-2,4-dioxo-thiazolidin-3-yl}-propionic acid methyl ester] | * (50 < *) | 40 to 50 | – | – | –
2 | COc1cc([N+](=O)[O-])ccc1-c1ccc(C=C2C(=O)NN(c3cccc(C)c3)C2=O)o1 [Compound 138, 4-[5-(2-Methoxy-4-nitrophenyl)furan-2-ylmethylene]-1-m-tolyl-pyrazolidine-3,5-dione] | – | – | * (50 < *) | – | activity at 50 µM [2, 4]: > 50%
3 | O=C1NC(=O)C(=Cc2ccc(-c3ccc([N+](=O)[O-])cc3Cl)o2)C(=O)N1 [Compound 11, 5-[5-(2-Chloro-4-nitrophenyl)furan-2-ylmethylene]-pyrimidine-2,4,6-trione] | * (50 < *) | – | – | 0 to 10 | –
4 | COC(=O)c1ccc(-c2ccc(/C=C3\C(=O)NC(=O)N(Cc4ccccc4)C3=O)o2)cc1 [Compound 32, 4-[5-(1-benzyl-2,4,6-trioxo-tetrahydro-pyrimidin-5-ylidenemethyl)furan-2-yl]benzoic acid methyl ester] | * (50 < *) | – | – | 10 to 20 | –
5 | O=C1NC(=O)C(=Cc2ccc(-c3cccc([N+](=O)[O-])c3)o2)S1 [Compound 87, 5-[5-(3-Nitrophenyl)furan-2-ylmethylene]-thiazolidine-2,4-dione] | – | – | * (50 < *) | – | activity at 50 µM [2, 4]: > 50%
6 | CN1C(=O)/C(=C/c2ccc(-c3ccc(S(N)(=O)=O)cc3)o2)SC1=S [Compound 45, 4-[5-(3-Methyl-4-oxo-2-thioxo-thiazolidin-5-ylidenemethyl)furan-2-yl]benzenesulfonamide] | * (50 < *) | 30 to 40 | – | – | –
7 | O=C1NC(=S)N/C1=C\c1ccc(-c2cccc([N+](=O)[O-])c2)o1 [Compound 89, 5-[5-(3-Nitrophenyl)furan-2-ylmethylene]-2-thioxo-imidazolidin-4-one] | – | – | * (50 < *) | – | activity at 50 µM [2, 4]: > 50%
8 | CN1C(=O)NC(=O)/C(=C/c2ccc(-c3cccc(C(=O)O)c3)o2)C1=O [Compound 77, 3-[5-(1-Methyl-2,4,6-trioxo-tetrahydro-pyrimidin-5-ylidenemethyl)furan-2-yl]benzoic acid] | – | – | – | 10 to 20 | NGF Activity % Maximal Binding ([1]; Table 2): XXX (20 < XXX < 30)
9 | CCCSC1=NC(=Cc2ccc(-c3ccc([N+](=O)[O-])cc3Cl)o2)C(=O)S1 [Compound 62, 4-[5-(2-Chloro-4-nitrophenyl)furan-2-ylmethylene]-2-propylsulfanyl-4H-thiazol-5-one] | * (50 < *) | 40 to 50 | – | – | –
10 | NS(=O)(=O)c1ccc(-c2ccc(C=C3C(=O)NC(=S)NC3=O)o2)cc1 [Compound 105, 4-[5-(4,6-Dioxo-2-thioxo-tetrahydro-pyrimidin-5-ylidenemethyl)furan-2-yl]benzenesulfonamide] | – | – | * (50 < *) | > 50 | –
11 | CCN1C(=O)/C(=C/c2ccc(-c3ccc([N+](=O)[O-])cc3)o2)NC1=S [Compound 55, 3-Ethyl-5-[5-(4-nitrophenyl)furan-2-ylmethylene]-2-thioxo-imidazolidin-4-one] | * (50 < *) | 30 to 40 | – | – | –
12 | COc1ccc(-c2ccc(C=C3C(=O)NC(=S)NC3=O)o2)cc1[N+](=O)[O-] [Compound 8, 5-[5-(4-Methoxy-3-nitrophenyl)furan-2-ylmethylene]-2-thioxo-dihydro-pyrimidine-4,6-dione] | * (50 < *) | – | – | 0 to 10 | –
13 | CCOC(=O)CN1C(=O)S/C(=C/c2ccc(-c3ccc(C(=O)O)c(Cl)c3)o2)C1=O [Compound 24, 2-Chloro-4-[5-(3-ethoxycarbonylmethyl-2,4-dioxo-thiazolidin-5-ylidenemethyl)furan-2-yl]benzoic acid] | * (50 < *) | 0 to 10 | – | – | –
